This note sets out measurements from patent publication US20070082877A1, “Difluoromethylbenzanilides and use thereof for combating micro-organisms, intermediate products and use thereof” (BAYER CORPSCIENCE AKTIENGESELLSCHAFT, priority 2003, published 2007).

This data set is described as follows: log P determination by HPLC on reversed-phase column (C 18), EEC directive 79/831 Annex V.A8. Particulars: reversed-phase HPLC column (C 18), acidic range pH 2.3, 43° C. Format: physicochemical. The method, then: The given log P values were determined in accordance with EEC directive 79/831 Annex V.A8 by HPLC (High Performance Liquid Chromatography) on a reversed-phase column (C 18). Temperature: 43° C. Mobile phases for the determination in the acidic range (pH 2.3): 0.1% aqueous phosphoric acid, acetonitrile; linear gradient from 10% acetonitrile to 90% acetonitrile. Calibration was carried out using unbranched alkan-2-ones (having 3 to 6 carbon atoms) with known log P values (determination of the log P values by the retention times using linear interpolation between two successive alkanones).

Consider `CC(CC(C)(C)C)c1ccccc1NC(=O)c1ccccc1C(F)F` (stereo not shown) [No. 1, 2-difluoromethyl-N-[2-(1,3,3-trimethylbutyl)phenyl]benzamide], for which the chromatographic logP (usually lipophilicity estimated from chromatographic retention) turned out to be 4.38.
